Measurements reported in patent US20160272953A1, “Activated Sugars” (ZuChem, Inc., priority 2010, published 2016).

Experiments:
Sugar-1-kinase-P = test: One-pot reaction, first step: phosphorylation by Sugar-1-kinase-P (DNS assay, TLC); assay type: biochemical, Pyrococcus furiosus; details: 8 mM sugar, 12 mM ATP, first 60 minutes
Method: (§1) Initial coupling of the reaction was tested for 1-pot synthesis of NDP-sugars. The reaction was started with 12 mM ATP, 3.5 mM MgCl2, and 8 mM of either L-Glucose or D-galactose. Partially purified Sugar-1-kinase-P was added to the mixture and a sample was taken at 0 and 60 minutes. After 60 minutes, dTTP or UTP (8 mM), 20 μL nucleotidyltransferase-S, and 2 μL of commercially available thermostable pyrophosphatase were added to the reaction and samples were taken at different time points and analyzed by TLC as shown in FIG. 7-1. […] Upon addition of the second enzyme and nucleotide, the formation of dTDP-D-galactose and dTDP-L-glucose began. The sugar nucleotides were more clearly visualized by UV, but can also been seen in the KMnO4 stained TLC plates in FIG. 6-1.

[1] = molecular target: T1, wild-type P. furiosus enzyme (Pyrococcus furiosus, UniProt Q9HHB6); test: GalK activity by ATP to ADP conversion (HPLC), wild-type enzyme; assay type: biochemical; details: 200 mM sugar, 100 mM ATP, 1 ug/ml enzyme, 60° C., 20 hours
T1 construct: 6-His (N); made in house; host or cells: E. coli
T1 sequence (Q9HHB6 whole entry): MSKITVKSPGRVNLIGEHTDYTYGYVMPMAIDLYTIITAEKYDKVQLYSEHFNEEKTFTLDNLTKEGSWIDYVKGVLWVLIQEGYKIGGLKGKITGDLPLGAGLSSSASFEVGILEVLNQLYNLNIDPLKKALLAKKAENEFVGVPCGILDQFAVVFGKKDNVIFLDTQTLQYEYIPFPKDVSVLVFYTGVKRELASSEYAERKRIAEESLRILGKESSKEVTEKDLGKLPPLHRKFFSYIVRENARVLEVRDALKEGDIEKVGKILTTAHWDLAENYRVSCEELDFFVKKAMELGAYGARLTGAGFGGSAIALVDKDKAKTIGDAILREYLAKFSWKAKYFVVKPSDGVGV
Method: The reaction of sugars with the wild type and mutant sugar-1-kinse such as those from Pyrococcus furiousus can also be monitored by following ATP consumption in the reaction. The amount of ATP consumption directly correlates with the amount of sugar-1-kinase produced. For example, to produce additional sugar-1-phosphates a series of experiments were carried out as follows, In a reaction mix containing 50 mM sodium phosphate buffer at pH 7.5, 100 mM ATP, 200 mM of the sugar being tested, 5mM MgC12 either 1 ug/ml of either the PK27 mutant or wild-type P. furiosus enzyme were added. The reaction was incubated at 60° C. for 20 hours. ATP and ADP concentrations were analyzed by HPLC using a Supelcosil LC-18-T column with a flow rate of 1.0 mL/min of 0.05 M. KH2P04/4 mM tetrabutylammonium hydrogen sulfate and a linear gradient solvent program of 0-30% methanol over 30 min. The percent conversion of ATP to ADP was calculated. Sugar-1-phosphate was analyzed by HPLC using Supelcosil LC-SAX column 0.05 M K-phosphate buffer, pH 6.0
GalK activity by ATp to ADp conversion, 20 h. Percentages indicate degree reaction proceeded to completion within 20 hours.

[2] = system: Sugar-1-kinase-P and nucleotidyltransferase-S; test: One-pot coupled sugar-1-kinase / nucleotidyltransferase reaction (TLC); assay type: biochemical; details: for conversion to dTDP-sugar, estimated by TLC: dTTP 8 mM as nucleotide donor
Method: as §1
The conversion is estimated to be greater than 80% based on the loss of Gal-1-P and appearance of dTDP-Gal on TLC. The reaction with L-glucose and dTTP was also successful, however, the conversion was lower and estimated to be 20% by TLC.

nucleotidyltransferase-S = test: Nucleotidyltransferase-S activity with Gal-1-P and dTTP (TLC and malachite green); assay type: biochemical, Streptococcus thermophilus; details: 7 mM Gal-1-P, 7 mM dTTP, 0.1 U pyrophosphatase
Method: The nucleotidyltransferase-S enzyme was chosen for further study due to its high expression in E. coli. Nucleotidyltransferase activity was measured with the commercially available substrate D-galactose-1-phosphate (Gal-1-P). This is not the natural substrate of homologous nucleotidyltransferases, which is D-glucose-1-phosphate. Nucleotidyltransferase-S was incubated with 7 mM Gal-1-P, 7 mM dTTP, and 0.1 U of pyrophosphatase. The reaction was monitored by two different methods. […] The second method of assay was a malachite green based inorganic phosphate assay. When dTTP is coupled to a Sugar-1-phosphate it releases pyrophosphate which is broken down to pyrophosphatase to 2 molecules of inorganic phosphate.

EP-P2 [3] = test: Nucleotidylyltransferase substrate specificity by TLC, EP-P2; assay type: biochemical, P. furiousus; details: 90° C., 6 mM substrate
From the text: (§2) A fourth nucleotidlylytransferaseenzyme has been cloned from P. furiousus (EP-P2) that has previously been shown capable of converting the only commercially available L-sugar-1-phosphate (L-fucose-1-P),[47] transferring 82% to produce UDP-L-Fucose as determined by ESI-MS. EP-P2 additionally has a broad activity range on 6 other D-sugar-1-phosphates. This enzyme was cloned as a His-tag fusion and purified by IMAC. Since we had 4 different enzymes (EP-S, EP-T, EP-P, and EP-P2) with different characteristics and substrate specificities, experiments were designed to test the substrate specificities on purified nucleotidlylytransferase enzyme and pure substrates. Reactions with each of the 4 nucleotidlylytransferase enzymes were set up using 4 different sugar-1-phosphates and 2 different nucleotides (32 reactions total), with each enzyme incubated near its optimal temperature. In a total volume of 200 μL the reactions contained 25 μL of purified enzyme, 5 mM MgCl2, 6 mM nucleotide, 6 mM sugar-1-phosphate, 4 U thermophilic pyrophosphatase (commercially available). The 4 sugar-1-phosphates were D-glucose-1-phosphate, L-glucose-1-phosphate, D-galactose-1-phosphate, and D-mannose-1-phosphate, while the 2 nucleotides chosen were dTTP and UTP. EP-P and EP-P2 were incubated at 90° C., EP-T at 65° C., and EP-S at 45° C. Samples were taken at the time of enzyme addition and every hour for three hours and then analyzed by TLC using 80% aqueous acetonitrile +10 mM TBAHS; visualized by UV and stained in KMnO4.
The UV visible spots were circled in black for FIG. 6-3 to aid in visualization as only the nucleotides and nucleotide-activated sugars are UV active. The upper left plates show TLC of standard compounds. […] To our knowledge these are the first examples of commercially viable dTDP-L-glucose enzymatic production. […] EP-S had good activity on both D-glu-1P and D-mann-1P. EP-P and EP-T both were only active on D-glucose-1P with UTP as the nucleotide. […] Furthermore, many of the reactions proceeded to completion by the first time point analyzed.

EP-P = test: Nucleotidylyltransferase substrate specificity by TLC, EP-P; assay type: biochemical, Pyrococcus furiosus; details: UTP, 90° C., 6 mM substrate
From the text: as §2, with “In a total volume of 200 μL the reactions contained 25 μL of purified enzyme, 5 mM MgCl2, 6 mM nucleotide, 6 mM sugar-1-phosphate, 4 U thermophilic pyrophosphatase (commercially available). The 4 sugar-1-phosphates were D-glucose-1-phosphate, L-glucose-1-phosphate, D-galactose-1-phosphate, and D-mannose-1-phosphate, while the 2 nucleotides chosen were dTTP and UTP. EP-P and EP-P2 were incubated at 90° C., EP-T at 65° C., and EP-S at 45° C.” left out
(§3) The UV visible spots were circled in black for FIG. 6-3 to aid in visualization as only the nucleotides and nucleotide-activated sugars are UV active. […] Furthermore, many of the reactions proceeded to completion by the first time point analyzed.

EP-T = test: Nucleotidylyltransferase substrate specificity by TLC, EP-T; assay type: biochemical, Thermus thermophilus; details: 65° C., 6 mM substrate
From the text: as §2, with “In a total volume of 200 μL the reactions contained 25 μL of purified enzyme, 5 mM MgCl2, 6 mM nucleotide, 6 mM sugar-1-phosphate, 4 U thermophilic pyrophosphatase (commercially available). The 4 sugar-1-phosphates were D-glucose-1-phosphate, L-glucose-1-phosphate, D-galactose-1-phosphate, and D-mannose-1-phosphate, while the 2 nucleotides chosen were dTTP and UTP. EP-P and EP-P2 were incubated at 90° C., EP-T at 65° C., and EP-S at 45° C.” left out
as §3

EP-S = test: Nucleotidylyltransferase substrate specificity by TLC, EP-S; assay type: biochemical, Streptococcus thermophilus; details: UTP, 45° C., 6 mM substrate
From the text: as §2, with “In a total volume of 200 μL the reactions contained 25 μL of purified enzyme, 5 mM MgCl2, 6 mM nucleotide, 6 mM sugar-1-phosphate, 4 U thermophilic pyrophosphatase (commercially available). The 4 sugar-1-phosphates were D-glucose-1-phosphate, L-glucose-1-phosphate, D-galactose-1-phosphate, and D-mannose-1-phosphate, while the 2 nucleotides chosen were dTTP and UTP. EP-P and EP-P2 were incubated at 90° C., EP-T at 65° C., and EP-S at 45° C.” left out
as §3

E. coli GalKMLYH = molecular target: T2, E. coli GalKMLYH (Escherichia coli, UniProt P0A6T3, D325E/M173L/Y371H); test: GalKMLYH conversion of L-sugars at 16° C.; assay type: biochemical; details: 5 hrs of incubation, partially purified cell extract
T2 construct: made in house; host or cells: E. coli
Method: The GalKMLYH enzyme was finally tested at 16° C. for the conversion of several other L-sugars using partially purified cell extract from the overexpressing E. coli strain and typical reaction conditions.

EP-P2 [4] = details: determined by ESI-MS; cited from earlier work
Sugar-1-kinase-S = test: Time course conversion of alternative substrates by Sugar-1-kinase-S; assay type: biochemical, Streptococcus thermophilus; details: 45° C., ~300 minutes, partially purified cell extract
WT Sugar-1-kinase-P = molecular target: T3, WT Sugar-1-kinase-P (Pyrococcus furiosus, UniProt Q9HHB6); test: Substrate specificity of purified WT Sugar-1-kinase-P (DNS assay); assay type: biochemical; details: 8 mM sugar, 2.4 mg/ml enzyme, 12 mM ATP, 5 mM MgCl2, pH 7.5 phosphate buffer
T3 construct: 6-His (N); made in house; host or cells: E. coli
T3 sequence (Q9HHB6 whole entry): as above
Method: Often, when applying protein engineering to activity on a new substrate the resulting enzyme has relaxed substrate specificity which we wanted to achieve. The purified Sugar-1-kinase-PK27 was then tested for the conversion of a variety of sugars and compared to purified WT Sugar-1-kinase-P. The reactions were setup with 8 mM of different sugars (L-ribose, L-galactose, L-glucose, L-arabinose, L-xylose, L-rhamnose, L-mannose, L-gulose, L-fucose, and 6-Azido-D-galactose), 2.4 mg/ml enzyme, 12 mM ATP, and 5 mM MgCl2 in pH 7.5 phosphate buffer. Samples were taken every hour and analyzed by DNS assay (FIG. 4-5A).

[5] = molecular target: engineered E. coli GalKMLYH (Escherichia coli, UniProt P0A6T3, D325E/M173L/Y371H); details: substrate 1.5 g/L, purified enzyme 0.6 g/L; cited from earlier work

For `O=C[C@H](O)[C@@H](O)[C@@H](O)[C@H](O)CO` [D-Galactose], the “conversion to sugar-1-phosphate” value (Sugar-1-kinase-P) was “completely converted”, the “degree reaction proceeded to completion (ATP to ADP conversion), WT Pyrococcus furiosus” value (“degree reaction proceeded to completion” below) [1] was 90% and the “conversion to dTDP-sugar, estimated by TLC” value [2] was “greater than 80%”.

With `C[C@@H](O)[C@H](O)[C@H](O)[C@@H](O)C=O` [D-fucose] the “degree reaction proceeded to completion” value [1] was 78%.

In the case of `O=P(O)(O)O[C@H]1O[C@H](CO)[C@H](O)[C@H](O)[C@H]1O` [D-galactose-1-phosphate], the activity with substrate (nucleotidyltransferase-S) is reported as “active”.

With `O=P(O)(O)O[C@H]1O[C@H](CO)[C@@H](O)[C@H](O)[C@H]1O` [D-glu-1P, D-glucose-1-phosphate] the “activity on sugar-1-phosphate” value (EP-P2 [3]; dTTP) was “showed activity”, the “activity on sugar-1-phosphate” value (EP-P) was “only active” and the “activity on sugar-1-phosphate” value (EP-T; UTP) was “only active”. The “activity on sugar-1-phosphate” value (EP-T; dTTP) was “converted” and the “activity on sugar-1-phosphate” value (EP-S) was “good activity”.

With `O=P(O)(O)O[C@H]1O[C@H](CO)[C@@H](O)[C@H](O)[C@@H]1O` [D-mannose-1P, D-mannose-1-phosphate] the “activity on sugar-1-phosphate” value (EP-P2 [3]; dTTP) was “showed activity” and the “activity on sugar-1-phosphate” value (EP-S) was “good activity”.

With `O=C[C@@H](O)[C@@H](O)[C@H](O)[C@H](O)CO` [D-mannose] the “degree reaction proceeded to completion” value [1] was 54%.

With `O=C[C@H](O)[C@@H](O)[C@H](O)CO` [D-xylose] the “degree reaction proceeded to completion” value [1] was 50%.

In the case of `O=C[C@H](O)[C@@H](O)[C@@H](O)CO` [L-arabinose], the “activity of GalK mutant on substrate” value (E. coli GalKMLYH) is reported as “did not display significant activity”.

In the case of `C[C@@H]1O[C@H](OP(=O)(O)O)[C@@H](O)[C@H](O)[C@@H]1O` [L-fucose-1-P], the “transfer to UDP-L-Fucose” value (EP-P2 [4]) is listed as 82%.

For `C[C@H](O)[C@@H](O)[C@@H](O)[C@H](O)C=O` [L-fucose], the “degree reaction proceeded to completion” value [1] was 40% and the “activity of GalK mutant on substrate” value (E. coli GalKMLYH) was “did not display significant activity”.

In the case of `O=P(O)(O)OC1OC(CO)C(O)C(O)C1O` [L-glu-1P, L-glucose-1-phosphate], the “activity on sugar-1-phosphate” value (EP-P2 [3]; UTP) is reported as “did not appear to appreciably convert” and the “activity on sugar-1-phosphate” value (EP-P2 [3]; dTTP) is reported as “showed activity”.

For `O=C[C@@H](O)[C@H](O)[C@@H](O)[C@@H](O)CO` [L-glucose], the “conversion to sugar-1-phosphate” value (Sugar-1-kinase-P) was “completely converted”, the “activity of GalK mutant on substrate” value (E. coli GalKMLYH) was “did not display significant activity” and the reaction completion (Sugar-1-kinase-S) was 95-100%. For the same compound, the “conversion to dTDP-sugar, estimated by TLC” value [2] was roughly 20%, the activity on sugar (WT Sugar-1-kinase-P) was “displayed activity” and the “conversion to 1-phosphate” value [5] was 25%.

With `O=C[C@@H](O)[C@@H](O)[C@H](O)[C@@H](O)CO` [L-gulose] the “activity of GalK mutant on substrate” value (E. coli GalKMLYH) was “did not display significant activity”.

With `O=C[C@H](O)[C@H](O)[C@@H](O)[C@@H](O)CO` [L-mannose] the “activity of GalK mutant on substrate” value (E. coli GalKMLYH) was “did not display significant activity”.

For `C[C@H](O)[C@H](O)[C@@H](O)[C@@H](O)C=O` [L-rhamnose], the “activity of GalK mutant on substrate” value (E. coli GalKMLYH) was “did not display significant activity”.

For `O=C[C@@H](O)[C@@H](O)[C@@H](O)CO` [L-ribose], the “activity of GalK mutant on substrate” value (E. coli GalKMLYH) was “did not display significant activity”.

In the case of `O=C[C@@H](O)[C@H](O)[C@@H](O)CO` [L-xylose], the “activity of GalK mutant on substrate” value (E. coli GalKMLYH) is reported as “did not display significant activity”.

With `O=c1ccn([C@@H]2O[C@H](COP(=O)(O)OP(=O)(O)OP(=O)(O)O)[C@@H](O)[C@H]2O)c(=O)[nH]1` [UTP] the “outcome as alternative nucleotide donor” value ([2]; 8 mM, one-pot coupled reaction) was “did not result in a successfully coupled reaction”.
